Experimental data taken from paper PMC10394516, “The pharmacokinetic profile of brensocatib and its effect on pharmacodynamic biomarkers including NE, PR3, and CatG in various rodent species” (Frontiers in Pharmacology, 2023).

Experiments:
[1] = test system: NE; assay: PD recovery study, bone marrow NE activity, C57BL/6 mice; format: in vivo; details: for Percent change from vehicle NE: bone marrow
Experimental: A PD recovery study was performed in female C57BL/6 mice dosed BID for 8 consecutive days. Mice were dosed by oral gavage either with vehicle (0 mg/kg) or 5 mg/kg brensocatib (BID; 10 mg/kg/day). After 8 consecutive days of dosing, the animals were maintained without further treatment until prescribed sacrifice (days: 1, 3, 6, 8, and 10 days post final dose). Plasma was collected from animals during the first 24 h of dosing at −0.5 (half-hour prior to dosing), 1, 8, 9, and 24 h post initial dose. Note that the 8- and 24-h plasma samples were prior to the afternoon dose and prior to the second day dose, respectively. Plasma was used for PK analysis via LC-MS/MS. On prescribed days, animals were sacrificed, and the hind limb bones (femurs and tibias) were collected at necropsy for bone marrow analysis of NSP activities by kinetic enzymatic assays.
(§1) For the mice, each animal had the femurs and tibias of both hind limbs harvested. For the rat, the femur and tibia from a single hind limb per animal was harvested. Bones were kept on wet ice until processing for bone marrow collection. In brief, bone cutters were used to cut the epiphysis (knobby ends) off the long bones to expose the bone marrow filled cavity. Each bone cavity was then flushed with 5 mL/bone (mouse) or 10 mL/bone (rat) of ice-cold RPMI media through a […] and collected in a 50-mL conical tube. Cells were spun down at 2,500 × g at 4°C for 5 min and the supernatant was aspirated. After which, bone marrow cells were lysed with 1X red blood cell (RBC) lysis buffer (Abcam, ab204733) to eliminate contaminating RBCs and washed with PBS to remove any residual RBC lysis buffer. The resulting white blood cells (WBC) were subsequently lysed with 1% (v/v) Triton X-100 in PBS. Lysates were added to 96-well plates and stored at −80°C until NSP analyses.
(§2) Bone marrow lysates prepared as described above were diluted and plated onto 96-well assay plates to quantify NSP activities as described previously ([Basso et al., 2022]). Briefly, peptide substrates for NE (N-Methoxysuccinyl-Ala-Ala-Pro-Val-7-amido-4-methylcoumarin; Sigma; St. Louis, MO; Excitation/Emission at 350/450 nm), PR3 ((7-Methoxycoumarin-4-yl)acetyl-lysyl-(picolinoyl)-Tyr-Asp-Ala-Lys-Gly-Asp-N-3-(2-4-dinitrophenyl)-2-3-diaminopropyonyl-NH2); GenScript; Piscataway, NJ; Excitation/Emission at 340/430 nm), and CatG (N-Succinyl-Ala-Ala-Pro-Phe p nitroanilide; Sigma; Absorbance at 405 nm) were added at a final assay concentration of 100 μM, 40 μM, and 200 μM, respectively, and either fluorescence or absorbance was quantified using a Synergy microplate reader (BioTek; Winooski, VT). The specific NSP activity in each sample was calculated as the total activity minus the activity in the presence of a specific NSP inhibitor (if used), including elastase inhibitor (Abcam) for NE, sivelestat (Abcam) for PR3, and cathepsin G inhibitor I (Cayman Chemical; Ann Arbor, MI) for CatG. NSP concentrations were interpolated based on their activities relative to the standard curves created using active human NE protein (Sigma), active human PR3 protein (Sigma), and active human CatG protein (Sigma), respectively. Due to unavailability of commercial mouse and/or rat NE, PR3, and CatG proteins, the corresponding human proteins were used instead since their catalytic ability is considered to be conserved across species. A portion of each cell lysate sample was retained for protein quantification using a Pierce™ BCA Protein Assay Kit (Thermo Fisher). The NSP activities were normalized for the cell lysate protein concentrations.
The Pierce™ BCA Protein Assay Kit was used to measure the total protein of the samples after lysis to allow for subsequent normalization. The manufacturer’s instructions for use were followed when performing this assay on a portion of the sample lysates which were diluted in PBS, the same diluent as used for preparation of the standard. Plates were read on the Biotek Synergy plate reader with Gen5 software.

[2] = test system: PR3; assay: Bone marrow PR3 activity after repeated dosing, Wistar rats; format: in vivo; details: for Reduction of PR3 activity vs vehicle / Change From Vehicle Control (%) PR3: 7 days
Experimental: Briefly, animals were weighed and randomized into different treatment groups. In total, three different dosing levels of brensocatib were tested in each species and strain; each QD dosing level was equivalent to 1.5-times the matching daily BID dose. For BID dosing, the second daily dose was administered 8-h post the morning dose. C57BL/6 mice were dosed either BID or QD for 7 consecutive days at 0/0, 0.5/0.75, 2/3, and 20/30 mg/kg/day (BID/QD). BALB/c mice were dosed for 7 consecutive days at 0/0, 0.2/0.3, 2/3, and 20/30 mg/kg/day (BID/QD). SD rats were dosed for 9 consecutive days at 0/0, 0.2/0.3, 2/3, and 20/30 mg/kg/day (BID/QD). Wistar rats were dosed for 7 consecutive days at 0/0, 0.2/0.3, 2/3, and 20/30 mg/kg/day (BID/QD).
At the completion of the study, animals were sacrificed 16–24 h post their final dose. The hind limb bones (femurs and tibias) were collected at necropsy for bone marrow analysis of NSP activities by kinetic enzymatic assays ([Basso et al., 2022]). See section Quantification of Bone Marrow NSP Activities for details.
as §1, §2
The Pierce™ BCA Protein Assay Kit was used to measure the total protein of the samples after lysis to allow for subsequent normalization. […]

[3] = after 8 days of 5 mg/kg BID, curve fit with free min and max

Cn1c(=O)oc2ccc(-c3ccc(C[C@@H](C#N)NC(=O)[C@@H]4CNCCCO4)cc3)cc21 [brensocatib]
Recovery: Time to reach 50% recovery, NE [1, 3]: 0.8 days
Recovery: Time to reach 90% recovery, NE [1, 3]: 4.9 days
Recovery: Time to reach 95% recovery, NE [1, 3]: 5.6 days
Recovery: Time to reach 100% recovery, NE [1, 3]: 6.6 days
Percent change from vehicle NE ([1]; 1 day recovery after 8 days of 5 mg/kg BID): −49% (p < 0.0001)
Percent change from vehicle NE ([1]; 3 days recovery after 8 days of 5 mg/kg BID): −4% (p = 0.9544)
Percent change from vehicle NE ([1]; 6 days recovery after 8 days of 5 mg/kg BID): −20% (p = 0.0067)
Percent change from vehicle NE ([1]; 8 days recovery after 8 days of 5 mg/kg BID): −2% (p = 0.9986)
Percent change from vehicle NE ([1]; 10 days recovery after 8 days of 5 mg/kg BID): +15% (p = 0.0607)
Reduction of PR3 activity vs vehicle ([2]; BID highest dose (20 mg/kg/day)): 46%
Reduction of PR3 activity vs vehicle ([2]; QD highest dose (30 mg/kg/day)): 59%
Combined BID and QD percent reduction, PR3 ([2]; highest dose level 20/30 (BID/QD) mg/kg/day): 53%
Change From Vehicle Control (%) PR3 ([2]; oral BID 0.2 mg/kg/day): +10% (p = 0.9848)
Change From Vehicle Control (%) PR3 ([2]; oral BID 2 mg/kg/day): +22% (p = 0.8768)
Change From Vehicle Control (%) PR3 ([2]; oral BID 20 mg/kg/day): −46% (p = 0.4135)
Change From Vehicle Control (%) PR3 ([2]; oral QD 0.3 mg/kg/day): +6% (p = 0.9963)
Change From Vehicle Control (%) PR3 ([2]; oral QD 3 mg/kg/day): −35% (p = 0.5635)
Change From Vehicle Control (%) PR3 ([2]; oral QD 30 mg/kg/day): −59% (p = 0.1437)
